# Test results reported in patent US8841312B2, “Fused pyridine, pyrimidine and triazine compounds as cell cycle inhibitors” (Amgen Inc., priority 2007, dated 2014).
# Key:
# Cdk4/CyclinD1 = Cdk4/CyclinD1 (Homo sapiens (Human), UniProt P11802); assay: Cdk4 kinase inhibition assay with recombinant Cdk4/CyclinD1, Rb substrate, [33P]-ATP filter plate; format: biochemical; conditions: 25 μM ATP, read-out: Cdk 4 IC50
# Outline: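 Recombinant Cdk4/CyclinD1 or Cdk6/CyclinD3 phosphorylated Rb protein with [33P]-ATP for 1 h at room temperature. Protein was TCA-precipitated on filter plates and bound radioactivity counted. IC50 by nonlinear regression.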
# Cdk6/CyclinD3 = Cdk6/CyclinD3 (Homo sapiens (Human), UniProt Q00534); assay: Cdk6 kinase inhibition assay with recombinant Cdk6/CyclinD3, Rb substrate, [33P]-ATP filter plate; format: biochemical; conditions: 25 μM ATP, read-out: Cdk 6 IC50
# Chain of Cdk6/CyclinD3 (Q00534 whole entry): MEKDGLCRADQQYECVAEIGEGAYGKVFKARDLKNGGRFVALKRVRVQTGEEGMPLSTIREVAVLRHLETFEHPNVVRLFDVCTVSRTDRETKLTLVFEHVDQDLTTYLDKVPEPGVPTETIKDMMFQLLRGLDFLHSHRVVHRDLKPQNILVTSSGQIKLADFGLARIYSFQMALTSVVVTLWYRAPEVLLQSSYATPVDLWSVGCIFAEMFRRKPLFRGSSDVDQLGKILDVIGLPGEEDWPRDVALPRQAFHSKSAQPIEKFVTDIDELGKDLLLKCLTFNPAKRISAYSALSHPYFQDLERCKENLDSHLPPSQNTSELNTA
# Chain of Cdk6/CyclinD3 (P30281 whole entry partner): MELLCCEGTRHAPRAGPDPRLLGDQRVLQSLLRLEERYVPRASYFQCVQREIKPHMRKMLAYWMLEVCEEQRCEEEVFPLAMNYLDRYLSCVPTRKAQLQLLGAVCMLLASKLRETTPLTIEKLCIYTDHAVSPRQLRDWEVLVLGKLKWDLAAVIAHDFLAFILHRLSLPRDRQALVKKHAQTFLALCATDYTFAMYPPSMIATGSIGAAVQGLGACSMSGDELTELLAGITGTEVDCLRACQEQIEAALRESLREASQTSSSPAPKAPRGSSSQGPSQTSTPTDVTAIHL
# Procedure: The Cdk4 and Cdk6 inhibitory activity of the compounds is measured with a kinase inhibition assay using recombinant Cdk4/CyclinD1 or Cdk6/CyclinD3 protein complexes. The protein substrate used in the assay is the retinoblastoma protein (Rb). The kinase reactions are carried out in a 96-well filter plate (MSDV N6B50, Millipore). […] The mixture is incubated at room temperature for 1 hour and the proteins precipitated with an equal volume of 20% TCA. The plates are washed with 10% TCA according to the manufacturer's instruction and dried at room temperature. The amount of the phosphorylated Rb is determined with a TopCount (PerkinElmer). The IC50 of a compound is determined by nonlinear regression curve fitting using software program Prism 5 (GraphPad Software).
# Chain of Cdk4/CyclinD1 (P11802 whole entry): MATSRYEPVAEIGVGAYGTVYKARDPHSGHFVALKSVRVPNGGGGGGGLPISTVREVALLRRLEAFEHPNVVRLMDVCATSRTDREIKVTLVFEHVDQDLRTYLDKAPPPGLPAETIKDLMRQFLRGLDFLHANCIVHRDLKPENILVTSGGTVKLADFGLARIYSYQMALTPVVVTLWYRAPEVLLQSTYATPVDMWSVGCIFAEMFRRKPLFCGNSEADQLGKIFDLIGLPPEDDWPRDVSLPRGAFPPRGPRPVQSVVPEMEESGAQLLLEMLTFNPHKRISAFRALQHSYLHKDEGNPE
# Chain of Cdk4/CyclinD1 (P24385 whole entry partner): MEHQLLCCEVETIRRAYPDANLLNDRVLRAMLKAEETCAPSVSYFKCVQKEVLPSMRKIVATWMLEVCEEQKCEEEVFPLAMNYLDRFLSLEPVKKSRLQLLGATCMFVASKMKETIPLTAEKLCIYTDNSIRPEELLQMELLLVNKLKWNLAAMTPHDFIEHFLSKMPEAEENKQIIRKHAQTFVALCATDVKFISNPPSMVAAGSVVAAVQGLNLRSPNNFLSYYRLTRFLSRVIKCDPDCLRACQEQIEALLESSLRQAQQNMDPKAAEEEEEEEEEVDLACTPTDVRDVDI
smiles,measurement,setting,value
"c1cc2c3cnc(Nc4ccc(N5CCNCC5)cn4)nc3n(C34CC5CC(CC(C5)C3)C4)c2cn1 [Example 26, (9-Adamantan-1-yl-9H-pyrido[4′,3′:4,5]pyrrolo[2,3-d]pyrimidin-2-yl)-(5-piperazin-1-yl-pyridin-2-yl)-amine]",IC50,Cdk4/CyclinD1,0.0016 µM
same,IC50,Cdk6/CyclinD3,0.0035 µM
"c1cc2c3cnc(Nc4ccc(N5CCNCC5)nn4)nc3n(C3CCCC3)c2cn1 [Example 6, 9-cyclopentyl-N-(6-(1-piperazinyl)-3-pyridazinyl)-9H-pyrido[4′,3′:4,5]-pyrrolo[2,3d]pyrimidin-2-amine]",IC50,Cdk4/CyclinD1,0.0015 µM
same,IC50,Cdk6/CyclinD3,0.0066 µM
"CN(C)C1CCN(c2ccc(Nc3ncc4c5ccnc(Cl)c5n(C5CCCC5)c4n3)nc2)CC1 [Example 153, 8-Chloro-9-cyclopentyl-N-(5-(4-(dimethylamino)-1-piperidinyl)-2-pyridinyl)-9H-pyrido[4′,3′:4,5]pyrrolo[2,3-d]pyrimidin-2-amine]",IC50,Cdk4/CyclinD1,0.001 µM
same,IC50,Cdk6/CyclinD3,0.0028 µM
C[C@H](CO)NC1CCN(c2ccc(Nc3ncc4c5ccncc5n(C5CCCC5)c4n3)nn2)CC1 [Example 444],IC50,Cdk4/CyclinD1,0.0019 µM
same,IC50,Cdk6/CyclinD3,0.011 µM
"CCOC(=O)CN1CCN(Cc2ccc(Nc3ncc4c5ccncc5n(C5CCCC5)c4n3)nc2)CC1 [Example 219, Ethyl (4-((6-((9-cyclopentyl-9H-pyrido[4′,3′:4,5]pyrrolo[2,3-d]pyrimidin-2-yl)amino)-3-pyridinyl)methyl)-1-piperazinyl)acetate]",IC50,Cdk4/CyclinD1,0.0053 µM
same,IC50,Cdk6/CyclinD3,0.011 µM
O[C@H]1CCN(c2ccc(Nc3ncc4c5ccccc5n(C5CCCC5)c4n3)nc2)C1 [Example 305],IC50,Cdk4/CyclinD1,0.149 µM
same,IC50,Cdk6/CyclinD3,0.111 µM
"O=S1(=O)CC=C(c2ccc(Nc3ncc4c5ccnc(F)c5n(C5CCCC5)c4n3)nc2)CC1 [Example 271, 9-Cyclopentyl-N-(5-(1,1-dioxido-3,6-dihydro-2H-thiopyran-4-yl)-2-pyridinyl)-8-fluoro-9H-pyrido[4′,3′:4,5]pyrrolo[2,3-d]pyrimidin-2-amine]",IC50,Cdk4/CyclinD1,0.016 µM
same,IC50,Cdk6/CyclinD3,0.016 µM
"OCCC1CCN(c2ccc(Nc3ncc4c5ccnc(F)c5n(C5CCCC5)c4n3)nc2)CC1 [Example 190, 2-(1-(6-((9-Cyclopentyl-8-fluoro-9H-pyrido[4′,3′:4,5]pyrrolo[2,3-d]pyrimidin-2-yl)amino)-3-pyridinyl)-4-piperidinyl)ethanol]",IC50,Cdk4/CyclinD1,0.0064 µM
same,IC50,Cdk6/CyclinD3,0.0076 µM
O[C@H]1CCN(C2CCN(c3ccc(Nc4ncc5c6ccncc6n(C6CCCC6)c5n4)nc3)CC2)C1 [Example 462],IC50,Cdk4/CyclinD1,0.34 µM
same,IC50,Cdk6/CyclinD3,0.35 µM
C[C@H](CO)Nc1ccc(Nc2ncc3c4ccncc4n(C4CCCC4)c3n2)nn1 [Example 295],IC50,Cdk4/CyclinD1,0.0068 µM
same,IC50,Cdk6/CyclinD3,0.0337 µM
CC[C@@H](C)n1c2cnccc2c2cnc(Nc3ccc(N4CCNC(C)(C)C4)cn3)nc21 [Example 342],IC50,Cdk4/CyclinD1,0.087 µM
same,IC50,Cdk6/CyclinD3,0.077 µM
CC1CN(c2ccc(Nc3ncc4c5ccccc5n(C5CCCC5)c4n3)nc2)CC(C)N1 (stereo not shown) [Example 303],IC50,Cdk4/CyclinD1,0.031 µM
same,IC50,Cdk6/CyclinD3,0.03 µM
OCCCn1c2cnccc2c2cnc(Nc3ccc(N4CC[C@@H](O)C4)nn3)nc21 [Example 353],IC50,Cdk4/CyclinD1,0.09 µM
same,IC50,Cdk6/CyclinD3,0.103 µM
"c1cc2c3cnc(Nc4ccc(N5CCNCC5)cn4)nc3n(C3CC4CCC3C4)c2cn1 (stereo not shown) [Example 24, (9-Bicyclo[2.2.1]hept-2-yl-9H-pyrido[4′,3′:4,5]pyrrolo[2,3-d]pyrimidin-2-yl)-(5-piperazin-1-yl-pyridin-2-yl)-amine]",IC50,Cdk4/CyclinD1,0.00094 µM
same,IC50,Cdk6/CyclinD3,0.0051 µM
CC[C@@H](C)n1c2cnccc2c2cnc(Nc3ccc(N4CCC(NC)CC4)cn3)nc21 [Example 325],IC50,Cdk4/CyclinD1,0.011 µM
same,IC50,Cdk6/CyclinD3,0.042 µM
"c1cc2c3cnc(Nc4ccc(N5CCNCC5)cn4)nc3n(C3CCOCC3)c2cn1 [Example 20, (5-piperazin-1-yl-pyridine-2-yl)-[9-(tetrahydro-pyran-4-yl)-9H-pyrido-[4′,3′,4,5]pyrrolo[2,3-d]pyrimidin-2-yl]-amine]",IC50,Cdk4/CyclinD1,0.0081 µM
same,IC50,Cdk6/CyclinD3,0.057 µM
OCCNC1CCN(c2ccc(Nc3ncc4c5ccncc5n(C5CCCC5)c4n3)nn2)CC1 [Example 438],IC50,Cdk4/CyclinD1,0.0042 µM
same,IC50,Cdk6/CyclinD3,0.012 µM
"Oc1cc2c3cnc(Nc4ccc(N5CCNCC5)cn4)nc3n(C3CCCC3)c2cn1 [Example 43, 9-Cyclopentyl-2-(5-piperazin-1-yl-pyridin-2-ylamino)-9H-pyrido[4′,3′:4,5]pyrrolo[2,3-d]pyrimidin-6-ol]",IC50,Cdk4/CyclinD1,0.136 µM
same,IC50,Cdk6/CyclinD3,0.218 µM
C[C@@H](CO)n1c2cnccc2c2cnc(Nc3ccc(N4CCNCC4)cn3)nc21 [Example 369],IC50,Cdk4/CyclinD1,0.045 µM
same,IC50,Cdk6/CyclinD3,0.029 µM
"c1cc2c3cnc(Nc4ccc(N5CCNCC5)nc4)nc3n(C3CCCC3)c2cn1 [Example 7, 9-cyclopentyl-N-(6-(1-piperazinyl)-3-pyridinyl)-9H-pyrido[4′,3′:4,5]pyrrolo[2,3-d]pyrimidin-2-amine]",IC50,Cdk4/CyclinD1,0.0014 µM
same,IC50,Cdk6/CyclinD3,0.0013 µM
CN(C)C1CCN(c2ccc(Nc3ncc4c5ccncc5n([C@H]5CCC[C@H]5O)c4n3)nc2)CC1 [Example 354],IC50,Cdk4/CyclinD1,0.58 µM
same,IC50,Cdk6/CyclinD3,0.83 µM
CC[C@@H](C)n1c2cnccc2c2cnc(Nc3ccc(N4CCNC(C)(C)C4)nn3)nc21 [Example 324],IC50,Cdk4/CyclinD1,0.011 µM
same,IC50,Cdk6/CyclinD3,0.02 µM
N[C@@H]1CCN(c2ccc(Nc3ncc4c5ccncc5n(C5CCCC5)c4n3)nn2)C1 [Example 109],IC50,Cdk4/CyclinD1,0.0019 µM
same,IC50,Cdk6/CyclinD3,0.011 µM
COc1ccc(-n2c3cnccc3c3cnc(Nc4ccc(N5CCNCC5)cn4)nc32)cc1 [Example 16],IC50,Cdk4/CyclinD1,0.01 µM
same,IC50,Cdk6/CyclinD3,0.021 µM
"Cn1c(=O)ccc2c3cnc(Nc4ccc(N5CCNCC5)cn4)nc3n(C3CCCC3)c21 [Example 184, 9-Cyclopentyl-8-methyl-2-((5-(1-piperazinyl)-2-pyridinyl)amino)-8,9-dihydro-7H-pyrido[3′,2′:4,5]pyrrolo[2,3-d]pyrimidin-7-one]",IC50,Cdk4/CyclinD1,0.0086 µM
same,IC50,Cdk6/CyclinD3,0.031 µM
FC(F)(F)CNC1CCN(c2ccc(Nc3ncc4c5ccncc5n(C5CCCC5)c4n3)nc2)CC1 [Example 470],IC50,Cdk4/CyclinD1,0.011 µM
same,IC50,Cdk6/CyclinD3,0.038 µM
"Oc1nccc2c3cnc(Nc4ccc(CN5CCNCC5)cn4)nc3n(C3CCCC3)c12 [Example 214, 9-cyclopentyl-2-((5-(1-piperazinylmethyl)-2-pyridinyl)amino)-9H-pyrido[4′,3′:4,5]pyrrolo[2,3-d]pyrimidin-8-ol]",IC50,Cdk4/CyclinD1,0.014 µM
same,IC50,Cdk6/CyclinD3,0.021 µM
CN(CCO)C1CCN(c2ccc(Nc3ncc4c5ccncc5n(C5CCCC5)c4n3)nn2)CC1 [Example 440],IC50,Cdk4/CyclinD1,0.0058 µM
same,IC50,Cdk6/CyclinD3,0.014 µM
OC1CN(C2CCN(c3ccc(Nc4ncc5c6ccncc6n(C6CCCC6)c5n4)nn3)CC2)C1 [Example 448],IC50,Cdk4/CyclinD1,0.01 µM
same,IC50,Cdk6/CyclinD3,0.022 µM
c1cc2c3cnc(Nc4ccc(N[C@@H]5CCNC5)cn4)nc3n(C3CCCC3)c2cn1 [Example 63],IC50,Cdk4/CyclinD1,0.0034 µM
same,IC50,Cdk6/CyclinD3,0.02 µM
"c1cc(-c2ccc(Nc3ncc4c5ccncc5n(C5CCCC5)c4n3)nn2)ccn1 [Example 259, 9-cyclopentyl-N-(6-(4-pyridinyl)-3-pyridazinyl)-9H-pyrido[4′,3′:4,5]pyrrolo[2,3-d]pyrimidin-2-amine]",IC50,Cdk4/CyclinD1,0.049 µM
same,IC50,Cdk6/CyclinD3,0.101 µM
CC[C@@H](C)n1c2cnccc2c2cnc(Nc3ccc(N4CCNCC4)cn3)nc21 [Example 320],IC50,Cdk4/CyclinD1,0.0036 µM
same,IC50,Cdk6/CyclinD3,0.011 µM
CN(C)C1CCN(c2ccc(Nc3ncc4c5ccncc5n([C@H]5CCC[C@H]5O)c4n3)nn2)CC1 [Example 355],IC50,Cdk4/CyclinD1,0.177 µM
same,IC50,Cdk6/CyclinD3,0.275 µM
O[C@H]1CCCN(C2CCN(c3ccc(Nc4ncc5c6ccncc6n(C6CCCC6)c5n4)nn3)CC2)C1 [Example 452],IC50,Cdk4/CyclinD1,0.007 µM
same,IC50,Cdk6/CyclinD3,0.03 µM
NC1CCN(c2ccc(Nc3ncc4c5ccccc5n(C5CCCC5)c4n3)nn2)CC1 [Example 308],IC50,Cdk4/CyclinD1,0.011 µM
same,IC50,Cdk6/CyclinD3,0.008 µM
COC(=O)CNC1CCN(c2ccc(Nc3ncc4c5ccncc5n(C5CCCC5)c4n3)nn2)CC1 [Example 476],IC50,Cdk4/CyclinD1,0.0017 µM
same,IC50,Cdk6/CyclinD3,0.026 µM
"c1cc2c3cnc(Nc4nc(CN5CCNCC5)cs4)nc3n(C3CCCC3)c2cn1 [Example 164, 9-Cyclopentyl-N-(4-(1-piperazinylmethyl)-1,3-thiazol-2-yl)-9H-pyrido-[4′,3′:4,5]pyrrolo[2,3-d]pyrimidin-2-amine]",IC50,Cdk4/CyclinD1,0.0036 µM
same,IC50,Cdk6/CyclinD3,0.0062 µM
OC1CCN(c2ccc(Nc3ncc4c5ccncc5n(C5CCCC5)c4n3)nn2)CC1 [Example 102],IC50,Cdk4/CyclinD1,0.0031 µM
same,IC50,Cdk6/CyclinD3,0.0111 µM
CC1CN(c2ccc(Nc3ncc4c5ccccc5n(C5CCCC5)c4n3)nn2)CC(C)N1 (stereo not shown) [Example 306],IC50,Cdk4/CyclinD1,0.013 µM
same,IC50,Cdk6/CyclinD3,0.039 µM
COCCn1c2cnccc2c2cnc(Nc3ccc(N4CCNCC4)nn3)nc21 [Example 313],IC50,Cdk4/CyclinD1,0.34 µM
same,IC50,Cdk6/CyclinD3,0.4 µM
"CC(C)n1c2cnccc2c2cnc(Nc3ccc(N4CCC(N(C)C)CC4)nn3)nc21 [Example 160, N-(6-(4-(Dimethylamino)-1-piperidinyl)-3-pyridazinyl)-9-(1-methylethyl)-9H-pyrido[4′,3′:4,5]pyrrolo[2,3-d]pyrimidin-2-amine]",IC50,Cdk4/CyclinD1,0.0025 µM
same,IC50,Cdk6/CyclinD3,0.0048 µM
"c1ccc2c(c1)c1cnc(Nc3ccc(N4CCNCC4)cc3)nc1n2C1CCOCC1 [Example 46, (4-piperazin-1-yl-phenyl)-[9-(tetrahydro-pyran-4-yl)-9H-pyrimido[4,5-b]indol-2-yl]-amine]",IC50,Cdk4/CyclinD1,0.002 µM
same,IC50,Cdk6/CyclinD3,0.00075 µM
O=C(O)CNC1CCN(c2ccc(Nc3ncc4c5ccncc5n(C5CCCC5)c4n3)nn2)CC1 [Example 478],IC50,Cdk4/CyclinD1,0.002 µM
same,IC50,Cdk6/CyclinD3,0.0057 µM
CC1(C)CN(c2ccc(Nc3ncc4c5ccccc5n(C5CCCC5)c4n3)nn2)CCN1 [Example 299],IC50,Cdk4/CyclinD1,0.06 µM
same,IC50,Cdk6/CyclinD3,0.034 µM
